Measurements: patent US5017723A, “Substituted ethylamines, their preparation process, their use as medicine and their synthesising agents” (Jouveinal S.A., priority 1990, dated 1991)
Counter-ions that a name gives are not always drawn. Like-named read-outs stand apart in the source and are kept apart here.

System: convulsion induced by picrotoxine in mice
Assay: Protection against picrotoxine-induced convulsion (suppression of the tonic extension phase)
Assay type: in vivo, male Swiss mice
Details: for ED50 / responders at 50 mg/kg / responders at 100 mg/kg: Mus musculus; for i.p.: % prot. (percentage of protected animals): 50 mg/kg i.p., picrotoxine 24 mg/kg i.p. 30 min later; for responders at 50 mg/kg: 0.5 h, read-out: i.p.: % prot. (percentage of protected animals), 50 mg/kg i.p., picrotoxine 24 mg/kg i.p. 30 min later; for responders at 100 mg/kg: 1 h, read-out: p.o.: % prot. (percentage of protected animals), 100 mg/kg p.o., picrotoxine 24 mg/kg i.p. 60 min later
From the text: The psychotropic properties of the compounds have been determined by the protection of the induced convulsion by picrotoxine for mice, which is achieved by the method derived from that of Krall et al., "Epilepsia", 1978, 19, p. 409-428.
The administration of picrotoxine caused a convulsive crisis in the animal characterised by a myoclonic extension syndrome followed by the extension of the limbs causing the animal to die. Certain substances, particularly those active on the complex GABA/benzodiazepines/Cl-ionophore makes it possible to protect the animals from this convulsive crisis.
In practice the study is carried out on batches of 10 male "Swiss" mice weighing approximately 20 g, which are administered with the product to be studied in aqueous solution either by intraperitoneal route (i.p.) at the rate of 50 mg/kg and in a volume of 0.2 ml of solution per animal, or by oral route (p.o) in a volume of 2.0 ml of solution per animal.
An injection of a solution of picrotoxine at the rate of 24 mg/kg in a volume of 0.2 ml per animal is then administered by interperitoneal route, either 30 minutes after administering the product by interperitoneal route or 60 minutes after administering the product by oral route. The dose of the product injected causing a clonic crisis, which results in untreated animals dying. The suppression of the extension tonic phase in the animals treated under the conditions of the test is observed. The results are expressed:
either in percentages of protected animals of this phase to the reaction of 50 mg/kg of the compound of the study administered by i.p. route or 100 mg/kg by p.o route,
or in DE50 for each of these routes, which is the efficient dosage of the test compound expressed in mg/kg protecting 50% of the animals of this extension phase. The significant value of the results being generally indicated in the following manner:
* Significant result at p<0.05
** Significant result at p<0.01
*** Significant highly significant at p<0.001.

[1] = * p<0.05, ** p<0.01, *** p<0.001
[2] = ip, * p<0.05, ** p<0.01, *** p<0.001
[3] = po, * p<0.05, ** p<0.01, *** p<0.001

`CCCN(C)C(CC)(CC=Cc1ccccc1)c1ccccc1` (stereo not drawn) [Example 47, a-cinnamyl-a-ethyl-N-methyl-N-propylbenzylamine] showed an ED50 (ip, read-out: i.p.: DE50) of 58.2 mg/kg and an ED50 (po, read-out: p.o.: DE50) of 65 mg/kg.
`CCC(N)(CC=Cc1ccccc1)c1ccccc1` (single isomer, unassigned) [Example 16B, (+) tartrate of (-)a-cinnamyl-a-ethyl benzylamine] was tested, and the “i.p.: % prot. (percentage of protected animals)” value [1] was 100% and the “p.o.: % prot. (percentage of protected animals)” value (100 mg/kg p.o., picrotoxine 24 mg/kg i.p. 60 min later, * p<0.05, ** p<0.01, *** p<0.001) was 100%.
`CCC(CC=Cc1ccsc1)(c1ccsc1)N(C)C` (stereo not drawn) [Example 70, N.N-dimethyl-a-ethyl-a-[3-(3-thienyl)-2-propenyl]-3-thienylmethylamine] gave a responders at 50 mg/kg [2] of 80% and a responders at 100 mg/kg [3] of 100%.
With `CCC(CC=Cc1ccccc1)(c1ccccc1)N(C)C` (single isomer, unassigned; (+)) [Example 50, (+) a-cinnamyl-N,N-dimethyl-a-ethyl-benzylamine] the “i.p.: % prot. (percentage of protected animals)” value [1] was 100%.
With `CCC(CC=Cc1ccccc1)(c1ccc(Cl)c(Cl)c1)N(C)C` (stereo not drawn) [Example 32, a-cinnamyl-N,N-dimethyl-a-ethyl-(3,4-dichloro)benzylamine] the responders at 50 mg/kg [2] was 50% and the responders at 100 mg/kg [3] was 60%.
`CCC(CC=Cc1ccccc1)(c1ccco1)N(C)C` (stereo not drawn) [Example 59, a-cinnamyl-N,N-dimethyl-a-ethyl-2-furfurylamine] was tested, and the responders at 50 mg/kg [2] was 90% and the responders at 100 mg/kg [3] was 100%.
For `CCC(N)(CC=Cc1ccc(Cl)c(Cl)c1)c1ccc(C)cc1` (stereo not drawn) [Example 12, a-(3',4'-dichloro)cinnamyl-a-ethyl-p.methylbenzylamine], the ED50 (ip, read-out: i.p.: DE50) was 37.3 mg/kg and the ED50 (po, read-out: p.o.: DE50) was 50 mg/kg.
Work on `CC(N)(CC=Cc1ccc(Cl)c(Cl)c1)c1ccccc1` (stereo not drawn) [Example 9, a-(3',4'-dichloro) cinnamyl-a-methylbenzylamine] yielded a responders at 50 mg/kg [2] of 100%.
Work on `CCC(CC=Cc1ccccc1)(c1cccs1)N(C)C` (stereo not drawn) [Example 62, a-cinnamyl-N,N-dimethyl-a-ethyl-2-thienylmethylamine] yielded a responders at 100 mg/kg [3] of 80%.
Work on `CCC(C[C@@H]1C[C@H]1c1ccccc1)(c1ccccn1)N(C)C` (relative stereo) [Example 58, trans N,N-dimethyl-a-ethyl-a-(2-phenyl-1-cyclopropylmethyl)-(2-pyridyl)methanamine] yielded a responders at 50 mg/kg [2] of 70% and a responders at 100 mg/kg [3] of 80%.
`CCC(CC=Cc1ccccc1)(NC)c1ccccc1` (single isomer, unassigned; (+)) [Example 29, (+) a-cinnamyl-a-ethyl-N-methyl benzylamine] was tested, and the “i.p.: % prot. (percentage of protected animals)” value [1] was 100%.
`CC(C)C(CC=Cc1ccccc1)(c1ccccc1)N(C)C` (stereo not drawn) [Example 41, a-cinnamyl-N,N-dimethyl-a-isopropylbenzylamine] was tested, and the ED50 (po, read-out: p.o.: DE50) was 78.4 mg/kg.
With `CCC(CC=Cc1cccs1)(c1ccco1)N(C)C` (stereo not drawn) [Example 61, N,N-dimethyl-a-ethyl-a-[3-(2-thienyl)-2-propenyl]-2-furfurylamine] the responders at 50 mg/kg [2] was 50%.
With `CN(C)C(C)(CC=Cc1ccc(Cl)c(Cl)c1)c1ccccc1` (stereo not drawn) [Example 48, a-(3.4 dichloro)cinnamyl-N,N-dimethyl-a-methyl-benzylamine] the responders at 50 mg/kg [2] was 90%.
Compound `CN(C)C(C)(CC=Cc1ccccc1)c1ccccc1` (stereo not drawn) [Example 40, a-cinnamyl-N,N-dimethyl-a-methyl-benzylamine] has an ED50 (ip, read-out: i.p.: DE50) of 16.6 mg/kg and an ED50 (po, read-out: p.o.: DE50) of 37.7 mg/kg.
Work on `CCC(N)(CC=Cc1ccccc1)c1ccc(Cl)cc1` (stereo not drawn) [Example 4, a-cinnamyl-a-ethyl-p.chlorobenzylamine] yielded a responders at 50 mg/kg [2] of 60%.
`CCC(C[C@@H]1C[C@H]1c1ccccc1)(c1cccs1)N(C)C` (relative stereo) [Example 63, trans N,N-dimethyl-a-ethyl-a-(2-phenyl-1-cyclopropylmethyl)-2-thienylmethylmaine] was tested, and the responders at 50 mg/kg [2] was 60% and the responders at 100 mg/kg [3] was 50%.
Compound `CCC(CC=Cc1cccs1)(c1cccs1)N(C)C` (stereo not drawn) [Example 65, N,N-dimethyl-a-ethyl-a-[3-(2-thienyl)-2-propenyl]-2-thienylmethylamine] has a responders at 50 mg/kg [2] of 90% and a responders at 100 mg/kg [3] of 50%.
In the case of `CCC(N)(CC=Cc1ccc(Cl)c(Cl)c1)c1ccc(OC)cc1` (stereo not drawn) [Example 13], the ED50 (ip, read-out: i.p.: DE50) was 23.2 mg/kg and the responders at 100 mg/kg [3] was 50%.
For `CCC(CC=Cc1cccs1)(c1ccccc1)N(C)C` (stereo not drawn) [Example 55, N,N-dimethyl-a-ethyl-a-[30(2-thienyl)-2-propenyl]-benzylamine], the responders at 50 mg/kg [2] was 70% and the responders at 100 mg/kg [3] was 70%.
Compound `CCC(CC=Cc1ccccc1)(NC)c1ccccc1` (single isomer, unassigned; (-)) [Example 28, (-) a-cinnamyl-a-ethyl-N-methyl benzylamine] has a responders at 50 mg/kg [2] of 100% and a responders at 100 mg/kg [3] of 100%.
`CCCCCC(CC=Cc1ccccc1)(c1ccccc1)N(C)C` (stereo not drawn) [Example 42, a-cinnamyl-N,N-dimethyl-a-pentyl-benzylamine] was tested, and the ED50 (po, read-out: p.o.: DE50) was 65 mg/kg.
In the case of `CCC(CC=Cc1ccccc1)(NC)c1ccc(Cl)c(Cl)c1` (stereo not drawn) [Example 20, a-cinnamyl-a-ethyl-N-methyl-3,4-dichlorobenzylamine], the responders at 100 mg/kg [3] was 80%.
With `CCC(CC=Cc1ccccc1)(c1ccccc1)N(C)C` (stereo not drawn) [Example 30, a-cinnamyl-N,N-dimethyl-a-ethyl-benzylamine] the responders at 50 mg/kg [2] was 100% and the responders at 100 mg/kg [3] was 100%.
In the case of `CCC(CC=Cc1ccccc1)(c1ccc(C(F)(F)F)cc1)N(C)C` (stereo not drawn) [Example 34, a-cinnamyl-N,N-dimethyl-a-ethyl-p.trifluoromethylbenzylamine], the responders at 50 mg/kg [2] was 80% and the responders at 100 mg/kg [3] was 60%.
For `CCC(CC=Cc1ccccc1)(c1ccccc1)N(C)C` (single isomer, unassigned; (-)) [Example 49, (-)a-cinnamyl-N,N-dimethyl-a-ethylbenzylamine], the responders at 50 mg/kg [2] was 100% and the responders at 100 mg/kg [3] was 100%.
Compound `CCC(N)(CC=Cc1ccccc1)c1ccccc1` (single isomer, unassigned) [Example 16A, (-) tartrate of (+) a-cinnamyl-a-ethyl-benzylamine] has a responders at 50 mg/kg [2] of 90% and a responders at 100 mg/kg [3] of 100%.
`CCC(N)(CC=Cc1ccccc1)c1ccccc1` (stereo not drawn) [Example 3, a-cinnamyl-a-ethyl-benzylamine] gave a responders at 50 mg/kg [2] of 80% and a responders at 100 mg/kg [3] of 100%.
In the case of `CCC(N)(CC=Cc1ccc(Cl)c(Cl)c1)c1cccc(C(F)(F)F)c1` (stereo not drawn) [Example 15, a-(3',4'-dichloro)cinnamyl-a-ethyl-m.trifluoromethylbenzylamin], the ED50 (ip, read-out: i.p.: DE50) was > 25 mg/kg.
`CCC(N)(CC=Cc1ccc(Cl)c(Cl)c1)c1ccccc1` (stereo not drawn) [Example 10, a-(3',4'-dichloro) cinnamyl-a-ethyl-benzylamine] was tested, and the responders at 50 mg/kg [2] was 90%.
Compound `C=CCN(C)C(CC)(CC=Cc1ccccc1)c1ccccc1` (stereo not drawn) [Example 38, N-allyl-a-cinnamyl-a-ethyl-N-methylbenzylamine] has a responders at 50 mg/kg [2] of 80%.
In the case of `CCC(N)(CC=Cc1ccccc1)c1ccc(Cl)cc1` (single isomer, unassigned; (+)) [Example 17A, (+) a-cinnamyl-a-ethyl-p.chlorobenzylamine], the responders at 50 mg/kg [2] was 80% and the responders at 100 mg/kg [3] was 50%.
In the case of `CCC(CC=Cc1ccccc1)(c1ccsc1)N(C)C` (stereo not drawn) [Example 67, a-cinnamyl-N,N-dimethyl-a-ethyl-3-thienylmethylamine], the responders at 50 mg/kg [2] was 70% and the responders at 100 mg/kg [3] was 100%.
Work on `CCC(CC=Cc1ccccc1)(NC)c1cccc(C(F)(F)F)c1` (stereo not drawn) [Example 21, a-cinnamyl-a-ethyl-N-methyl-(m.trifluoromethyl)benzylamine] yielded a responders at 50 mg/kg [2] of 90% and a responders at 100 mg/kg [3] of 70%.
Compound `CCC(N)(CC=Cc1ccccc1)c1ccc(OC)cc1` (stereo not drawn) [Example 8, a-cinnamyl-a-ethyl-p.metoxybenzylamine] has a responders at 50 mg/kg [2] of 80%.
`CCC(CC=Cc1ccccc1)(NC)c1ccccc1` (stereo not drawn) [Example 18, a-cinnamyl-a-ether-N-methyl-benzylamine] showed a responders at 50 mg/kg [2] of 80% and a responders at 100 mg/kg [3] of 100%.
For `CCC(N)(CC=Cc1ccccc1)c1ccc(Cl)c(Cl)c1` (stereo not drawn) [Example 5, a-cinnamyl-a-ethyl-3,4 dichlorobenzylamine], the responders at 50 mg/kg [2] was 50%.
Work on `CCC(C[C@@H]1C[C@H]1c1ccccc1)(c1ccco1)N(C)C` (relative stereo) [Example 60, trans N,N-dimethyl-a-ethyl-a-(2-phenyl-1-cyclopropylmethyl)-2-furfurylamine] yielded a responders at 50 mg/kg [2] of 80% and a responders at 100 mg/kg [3] of 60%.
In the case of `CCC(N)(CC=Cc1ccccc1)c1ccc(C)cc1` (stereo not drawn) [Example 6, a-cinnamyl-a-ethyl-p.methylbenzylamine], the responders at 50 mg/kg [2] was 70% and the responders at 100 mg/kg [3] was 70%.
